In patent US12352767B2, “Method of treating cognitive decline associated with neurological diseases based on a decrease in FLT4 expression or activity” (University of Virginia Patent Foundation, priority 2018, dated 2025):
“Also recorded” adds a separate entry of the source.

Assays:
[1] = tested on: meningeal lymphatic drainage; assay: Drainage of CSF tracer (OVA-A647) into deep cervical lymph nodes; format: in vivo, mice; conditions: 7 days after Visudyne/photoconversion, 2 h after i.c.m. tracer, vs control groups
Description: Mice were anaesthetized by intraperitoneal (i.p.) injection of a mixed solution of ketamine (100 mg/Kg) and xylazine (10 mg/Kg) in saline. The skin of the neck was shaved and cleaned with iodine and 70% ethanol, ophthalmic solution placed on the eyes to prevent drying and the mouse's head was secured in a stereotaxic frame. After making a skin incision, the muscle layers were retracted and the cisterna magna exposed. Using a Hamilton syringe (coupled to a 33-gauge needle), the volume of the desired tracer solution was injected into the CSF-filled cisterna magna compartment. For brain CSF influx and lymphatic drainage experiments, 2 or 5 μL of Alexa Fluor® 594 or 647 conjugated OVA (Thermo Fisher Scientific), at 0.5 mg/mL in artificial CSF (#597316, Harvard Apparatus U.K.), were injected at a rate of 2.5 μL/min. After injecting, the syringe was left in place for additional 2 min to prevent back-flow of CSF.

aquaporin 4 (AQP4) = assay: AQP4 / CD31 immunostaining of brain sections; format: in vivo, mice
Description: Mouse fresh frozen brain sections were fixed with 4% PFA for 30 min, rinsed in dH2O and submitted to a heat-induced antigen retrieval step with 10 mM citrate buffer for 20 min. […] The steps described next were generally applied for mouse fresh frozen or fixed free-floating brain sections, lymph node sections on slide, meningeal whole-mounts and human fixed tissue. For immunofluorescence staining, tissue was rinsed in PBS and washed with PBS 0.5% Triton-X-100 for 10 min, followed by incubation in PBS 0.5% Triton-X-100 containing 0.5% of normal serum (either goat or chicken) and 0.5% bovine serum albumin (BSA) for 1 hour at RT. This blocking step was followed by incubation with appropriate dilutions of primary antibodies: anti-LYVE-1 eFluor 660 or anti-LYVE-1 Alexa Fluor® 488 (eBioscience, clone ALY7, 1:200), anti-CD31 (Millipore Sigma, MAB1398Z, clone 2H8, 1:200), anti-IBA1 (Abcam, ab5076, 1:300), anti-GFAP (Millipore Sigma, ab5541, 1:300), anti-AQP4 (Millipore Sigma, A5971, 1:200), anti-Ki67 (Abcam, ab15580, 1:100), anti-hAβ1-16 (BioLegend, clone 6E10, 1:200), anti-Aβ1-37/42 (Cell Signaling, clone D54D2, 1:300) and anti-GFP (Abcam, ab6556, 1:300) in PBS 0.5% Triton-X-100 containing 0.5% of normal serum and 0.5% BSA overnight at 4° C. Meningeal whole-mounts or tissue sections were then washed 3 times for 5 min at RT in PBS 0.5% Triton-X-100 followed by incubation with the appropriate chicken, goat or donkey Alexa Fluor® 488, 546, 594, or 647 anti-rat, -goat, -rabbit, -mouse or -Armenian hamster IgG antibodies (Thermo Fisher Scientific, 1:500) for 1 or 2 hours at RT in PBS 0.5% Triton-X-100. After an incubation for 10 min with 1:2000 DAPI in PBS, the tissue was washed 3 times for 5 min with PBS at RT and mounted with Aqua-Mount (Lerner) and glass coverslips. Preparations were stored at 4° C. for no more than 1 week until images were acquired either using a widefield microscope (Leica) or a confocal microscope (FV1200 Laser Scanning Confocal Microscope, Olympus). Quantitative analysis using the acquired images was performed on FIJI software. For the assessment of brain fluorescent tracer influx or efflux or AQP4 coverage, 10 representative brain sections were imaged using the widefield microscope and the mean area fraction was calculated using Microsoft Excel. […] Area of coverage by CD31^+ blood vessels and AQP4^+ astrocyte endfeet in the brain cortex was achieved by calculating the mean value of 10 representative fields (5 images in each cerebral hemisphere) per sample acquired using the confocal microscope.

mice = assay: Open field test; format: in vivo; conditions: Visudyne/photoconversion twice, two-week interval, adult mice
Description: Open field was performed following a published protocol^51 with minor modifications. Mice were carried to the behavior room to habituate at least 30 min before starting the test. Mice were then placed into the open field arena (made of opaque white plastic material, 35 cm×35 cm) by a blinded experimenter and allowed to explore it for 15 min. Total distance (cm) and % time spent in the center (22 cm×22 cm) were quantified using video tracking software (TopScan, CleverSys, Inc.).

meningeal immune cells = assay: Flow cytometry of meningeal immune cell populations; format: in vivo; conditions: 5xFAD mice
Description: Individual meninges were immediately dissected from the mouse's skull cap and digested 15 min at 37° C. with 1.4 U/ml of Collagenase VIII (Sigma Aldrich) and 35 U/ml of DNAse I (Sigma Aldrich) in complete media consisting of DMEM (Gibco) with 2% FBS (Atlas Biologicals), 1% L-Glutamine (Gibco), 1% penicillin/streptomycin (Gibco), 1% Sodium pyruvate (Gibco), 1% non-essential amino-acid (Gibco) and 1.5% Hepes (Gibco). […] Cell viability was determined by using the Zombie Aqua™ Fixable Viability Kit following the manufacturer's instructions (BioLegend). […] Fluorescence data was collected with a Gallios™ Flow Cytometer (Beckman Coulter, Inc.) then analyzed using FlowJo software (Tree Star, Inc.). […] An aliquot of unstained cells of each sample was counted using Cellometer Auto2000 (Nexcelor) to provide accurate counts for each population. […]

[2] = Visudyne-treated vs vehicle-treated mice

Substance: verteporfin [Visudyne]
- OVA-A647 drainage from CSF into dCLNs (area fraction) [1]: significant reduction; also recorded: significantly less amount of tracer
- area of AQP4+ astrocytic endfeet in brain cortex (aquaporin 4 (AQP4); Visudyne vs vehicle): No changes were observed
- area of CD31+ blood vessels in brain cortex (aquaporin 4 (AQP4); Visudyne vs vehicle): No changes were observed
- ratio between area of AQP4+ and of CD31+ (aquaporin 4 (AQP4); Visudyne vs vehicle): No changes were observed
- overall brain coverage by AQP4 (area fraction) (aquaporin 4 (AQP4); [2]): could not detect changes; also recorded: no differences between groups
- perivascular localization of AQP4+ astrocytic endfeet (aquaporin 4 (AQP4); [2]): could not detect changes
- open field time in center of the arena (mice): No differences between the groups
- open field total distance (mice): No differences between the groups
- number of macrophages in the meninges (meningeal immune cells; 1.5 months Visudyne/photoconversion vs both control groups): significant increase
- neutrophils in the meninges (meningeal immune cells; Visudyne group (no photoconversion) compared to Visudyne/photoconversion group): significant increase
